Assay [1] relates to Candida albicans. Nature of the assay: microbe, parasite or virus in culture. In kind it is cell-based. Also noted: C. albicans A% (activity index): concentration or dose not given beside the values. As to the method: The antimicrobial activities of the OSe compounds were evaluated against C. albicans yeast, as well as E. coli and S. bacteria, employing the agar well diffusion assay. Furthermore, the MICs (in µM) were determined by the microdilution method according to the reported protocol. More details are in the Supporting Information.
Compounds were evaluated for their antimicrobial activity against the Gram-negative bacteria Escherichia coli (E. coli) and the Gram-positive bacteria Staphylococcus aureus (S. aureus), as well as the Candida albicans (C. albicans) fungal strain, using the agar diffusion assay. Ampicillin and clotrimazole were used as standards. Indeed, the antimicrobial properties of the OSe compounds were also obtained from the activity index percentage (A%) according to Equation (2). (2) A%=Zone of inhibition by test compound diametre/Zone of inhibition by standard diametre×100 . […]
(§1) 1.1.1. The antimicrobial activity
The antimicrobial activities of the OSe compounds were evaluated against C. albicans yeast as well as E. coli gram-negative and S. aureus gram-positive bacteria employing the agar well diffusion assay. […]
compound by dissolving in DMSO. […]
Petri dishes, which in turn contain a nutrient media (agar 20 g, peptone 5 g, and beef extract 3 g) seeded with the dedicated strain. Incubation lasted for 24 h at 36
(§2) Furthermore, the MICs (in µM) were determined by the microdilution method according to the reported protocol. […]
(§3) Inhibition%= (Ablank-Asample)/(Ablank)*100. (1)

Assay [2] has as its system Candida albicans. Nature of the assay: MIC by microdilution, C. albicans. It counts as cell-based. The note with it: Candida albicans; microdilution; read-out: MIC (μM) C. albicans. As to the method:
The antimicrobial activities of the OSe compounds were evaluated against C. albicans yeast, as well as E. coli and S. bacteria, employing the agar well diffusion assay. Furthermore, the MICs (in µM) were determined by the microdilution method according to the reported protocol. More details are in the Supporting Information. […]
as §1
The antimicrobial activities of the OSe compounds were evaluated against C. albicans yeast as well as E. coli gram-negative and S. aureus gram-positive bacteria employing the agar well diffusion assay. Briefly, a concentration of 1 mM was prepared for each compound by dissolving in DMSO. Paper discs of standard size […] were steri-lized in an autoclave and soaked in 20 µL of the test compounds, and placed in the Petri dishes, which in turn contain a nutrient media (agar 20 g, peptone 5 g, and beef extract 3 g) seeded with the dedicated strain. Incubation lasted for 24 h at 36
as §2, §3
(Broth dilution looks for growth in wells or tubes with falling amounts of substance.)

Assay [3] in a line: DPPH radical scavenging bioassay. It counts as biochemical.
Text: (§4) The antioxidant activity was estimated by ABTS and DPPH bioassays, according to the reported literature method. More details are in the Supplementary Materials.
(§5) Recently, OSe compounds were thoroughly used as redox modulators to control many complicated diseases (e.g., cancer and neurodegenerative diseases). The DPPH and ABTS bioassays were extensively used as rapid tools for estimating the antioxidant potency of OSe compounds [50, 51]. Ascorbic acid was used as a standard control, and the antioxidant potency was measured by the ability of the compounds to decolorize the characteristic colors of the ABTS^. and DPPH^. radicals by following the colorimetric decline in absorbance at 734 and 517 nm, respectively (Figure 2).
Figure 2 Evaluation of the antioxidant properties of the OSe compounds employing the ABTS and DPPH assays. All measurements are mean ± SD. In the DPPH assay: absorbance was read after 0.5 h of mixing […] of DPPH with […] of OSe compounds (1 mM, MeOH) at 517 nm. In the ABTS assay: […] of each OSe compound (1 mM, phosphate-buffered methanol) was mixed with the ABTS solution (60 mM), and absorbance was monitored at 734 nm. […]
1.1.1. The antioxidant activity
The hydrogen atom or electron donation ability of the corresponding compounds was measured by estimating the bleaching of the purple color of a methanolic solution of DPPH [29]. This spectrophotometric assay uses stable DPPH. reagent. The sample was prepared by adding […] of the OSe compounds (1 mM in methanol) to […] DPPH in methanol. After 30 min of incubation in the dark, the absorbance was read against a blank at 517 nm. Ascorbic acid (vitamin C) and ebselen were used as standard antioxi-dants (positive control). A blank sample was run without DPPH. A negative control sam-ple was run using methanol instead of the sample. The radical scavenging activity was calculated using the following equation:
as §3
On the technique in general: Loss of DPPH colour is used to gauge radical scavenging.

Assay [4] is described as follows: ABTS radical scavenging bioassay. In kind it is biochemical.
Text: as §4, §5
Figure 2 Evaluation of the antioxidant properties of the OSe compounds employing the ABTS and DPPH assays. All measurements are mean ± SD. In the DPPH assay: absorbance was read after 0.5 h of mixing […] of DPPH with […] of OSe compounds (1 mM, MeOH) at 517 nm. In the ABTS assay: […] of each OSe compound (1 mM, phosphate-buffered methanol) was mixed with the ABTS solution (60 mM), and absorbance was monitored at 734 nm.
The antioxidant activity of the investigated compounds was assessed using 2,2’-az-ino-bis(3-ethylbenzothiazoline-6-sulphonic acid (ABTS) method. The radical cation derived from ABTS was prepared by the reaction of 60 mM ABTS solution with 0.3 M manganese dioxide solution in 0.1M phosphate buffer, pH 7. Then, the mixture was shaken, centrifuged, filtered, and the absorbance (Acontrol) of the resulting green-blue solu-tion (ABTS radical solution) was measured at wavelength 734 nm. Then, […] of 1 mg/ml test compound in phosphate-buffered methanol was added. The absorbance (Atest) was measured. The reduction in color intensity was expressed as % inhibition. The % inhibi-tion for each compound is calculated from the following equation
Inhibition% = (Acontrol-Asample)/(Acontrol)*100
Ascorbic acid (vitamin C) was used as a standard antioxidant (positive control). A blank sample was run without ABTS and using MeOH/phosphate buffer (1:1) instead of the sample. A negative control sample was run with MeOH/phosphate buffer (1:1) instead

[5] abbreviates: concentration decreasing absorbance by 50%.

≈ marks a conversion by molar mass, not a printed value.

As usually defined, the MIC is the lowest concentration that inhibits growth of the organism. For `Clc1ccccc1C(c1ccccc1)(c1ccccc1)n1ccnc1` [Clotrimazole, clotrimazole, reference compound], in assay [1] (Candida albicans, inhibition zone diameter, six-mm disks soaked with 20 μM of compound, read-out: C. albicans IZD (mm)), the zone of inhibition at 20 µM amounted to 24 mm. The “C. albicans A% (activity index)” value in assay [1] (zone of test compound / zone of standard (clotrimazole) x 100) amounted to 100%. Further, in assay [2], the MIC turned out to be 2 µM (≈ 0.69 µg/mL).

Usually IC50 stands for the concentration that inhibits the measured activity by half. On to `O=C1O[C@H]([C@@H](O)CO)C(O)=C1O` [Vitamin C, Ascorbic acid, reference compound], for which the “radical scavenging activity, DPPH assay” value in assay [3] (compound 1 mM in MeOH, read after 0.5 h at 517 nm) came to 95%. The values for the half-maximal inhibitory concentration (IC50) in assay [3] (setting [5]) and in assay [4] (setting [5]) were 19.18 ± 0.13 µM and 28.16 ± 0.19 µM, respectively. The “radical scavenging activity, ABTS assay” value in assay [4] (compound 1 mM in phosphate-buffered methanol, 734 nm) worked out at 88%.

Source of the values: article PMC9312238, “Novel Organoselenium Redox Modulators with Potential Anticancer, Antimicrobial, and Antioxidant Activities” (Antioxidants, 2022).
